# Where two headings read alike, the source gives them in different places.
# How the values were obtained:
# advanced pancreas cancer = conditions: single agent, patients with advanced pancreas cancer; cited from earlier work
# [1] = test system: PSN1 (Human Pancreatic Carcinoma) Cell Line; assay: MTS cytotoxicity of irinotecan and topotecan solutions on PSN1 cells; format: cell-based; conditions: for IC50: read-out: Estimated IC50 conc.
# Experimental: 20,000 PSN1 cells were seeded in 96 well plates and left to adhere to the well surface overnight. The drug solutions underwent serial dilutions from 1000 μg/ml to 1×10^−8 μg/ml in cell culture media. […] After 24, 48 and 72 hrs, the cells were washed (×3) with PBS and 100 μl media was added. The MTS assay was conducted by adding 20 μl MTS solution to each well and incubating (37° C., 5% CO2) for 2 hrs. The absorbance of each well at 490 nm was determined using a Biotek plate reader.
SMILES,Median survival (advanced pancreas cancer) [months],Concentration at which a reduction in cell viability began ([1]; 24 hrs exposure) [µg/mL],Concentration at which a reduction in cell viability began ([1]; 48 hours) [µg/mL],Concentration at which an effect on cell viability began ([1]; 72 hours),"Effect on cell viability at lower concentration ([1]; <1 μg/ml, even after 72 hours)","IC50 ([1]; Homo sapiens, 24 hrs exposure) [µg/mL]","IC50 ([1]; Homo sapiens, 48 hrs exposure) [µg/mL]","IC50 ([1]; Homo sapiens, 72 hrs exposure) [µg/mL]",Relative potency in reducing PSN1 cell viability [1],Concentration needed for a reduction in cell viability below 80% ([1]; 72 hours) [µg/mL],"viability at 0.1 µg/mL ([1]; Homo sapiens, 48 hours, 0.1 μg/ml) [%]"
O=c1[nH]cc(F)c(=O)[nH]1 [5-fluorouracil],4.4,–,–,–,–,–,–,–,–,–,–
"CCc1c2c(nc3ccc(OC(=O)N4CCC(N5CCCCC5)CC4)cc13)-c1cc3c(c(=O)n1C2)COC(=O)[C@]3(O)CC [Irinotecan, irinotecan]",–,100,10,around 50 μg/ml,no detrimental effect in cell viability,100,35,30,–,–,–
"CC[C@@]1(O)C(=O)OCc2c1cc1n(c2=O)Cc2cc3c(CN(C)C)c(O)ccc3nc2-1 [Topotecan, topotecan]",–,1,0.1,1e-07 µg/mL,–,600,0.6,0.1,more potent than irinotecan,0.01,~80
Nc1ccn([C@@H]2O[C@H](CO)[C@@H](O)C2(F)F)c(=O)n1 [gemcitabine],5.7,–,–,–,–,–,–,–,–,–,–
